Like-named read-outs stand apart in the source and are kept apart here.
Key:
Aβ monomer = target: T1, Aβ monomer (Homo sapiens, UniProt P05067); conditions: read-out: Binding Affinity IC50; cited from earlier work
T1 construct: Aβ monomer

[1] = Grey to white matter binding, autoradiography of AD patient brain slices; parameters: species or system human
Description: A study was conducted to examine the grey to white matter binding ratios for 4 different tracers: CB-001, CB-003, FDDNP and F-PiB (FIG. 7 and FIG. 8 of U.S. Ser. No. 12/372,717). […] After the human brain slices from AD patients were incubated with a given tracer for 30 min, the slices were washed with various EtOH:water solutions in an attempt to optimize the grey to white matter ratios (FIG. 9 of U.S. Ser. No. 12/372,717). The results were surprising and unexpected in view of previous work performed by other researchers. CB-001 has a slightly higher c Log P than FDDNP (3.8 vs 3.4) and would be expected to have poorer washout than FDDNP based on these values. […] More specifically, the white matter binding of FDDNP is several shades darker than CB-001's white matter binding, indicating low non-specific binding of CB-001.

[2] = target: Amyloid (AD Patient's Brain Slice) (Homo sapiens, UniProt P05067); assay: IC50 determination with [18F]-PiB by ex vivo competition assay using autoradiography staining; type: binding
Excerpt: Ex Vivo Competition Assay Using Amyloid (AD Patient's Brain Slice) Autoradiography Staining

Sequence of Amyloid (AD Patient's Brain Slice) (P05067 672-711 limits assumed): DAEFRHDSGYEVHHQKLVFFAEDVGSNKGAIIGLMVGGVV
T1 sequence (P05067 672-713 limits assumed): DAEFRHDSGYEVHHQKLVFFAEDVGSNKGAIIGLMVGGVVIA

## O=S(=O)(O)c1cccc2cccc(Nc3ccccc3)c12 [ANS]
Aβ monomer
  IC50: > 100000 nM

## FCCOCCOCCOc1ccc2c(c1)[nH]c1ccccc12 [CB-003, 2-(2-(2-(2-fluoroethoxy)ethoxy)ethoxy)-9H-carbazole]
[1]; mild wash protocol
  differentiation of healthy and AD brain: clearly differentiate between a healthy brain and an AD brain
[1]; mild wash: 30%/40%/20% EtOH:water
  Grey/white matter binding ratio using mild wash conditions: Excellent
[1]; milder washing conditions, text b481
  grey to white matter binding ratios: excellent

## Nc1c(/N=N/c2ccc(-c3ccc(/N=N/c4cc(S(=O)(=O)O)c5ccccc5c4N)cc3)cc2)cc(S(=O)(=O)O)c2ccccc12 [Congo Red]
Aβ monomer
  IC50: 2000 to 10000 nM

## COc1cc(/C=C/C(=O)/C=C(O)/C=C/c2ccc(O)c(OC)c2)ccc1O [Curcumin]
Aβ monomer
  IC50: 10000 to 20000 nM

## F-PiB
[1]
  overall signal: very weak
[2]; average of determinations, read-out: Average IC50
  IC50: 45 nM
[2]; determination 9, read-out: IC50 9
  IC50: 40 nM
[2]; determination 10, read-out: IC50 10
  IC50: 50 nM
[2]; determination 11, read-out: IC50 11
  IC50: 55 nM
[2]; determination 12, read-out: IC50 12
  IC50: 41 nM
